“Also recorded” adds a separate entry of the source.
Columns and labels:
MHC class II = details: Atorvastatin, Lovastatin, Pravastatin compared; FIG. 1a
Protocol: Cell isolation and culture. […] Flow cytometry. […] Data were analyzed using […] software (Becton Dickinson).

CD40 = test: IFN-γ induced CD40 expression on human vascular endothelial cells (Western blot, FACS); type: cell-based; details: ECs
Protocol: Cell isolation and culture. Human vascular endothelial cells (ECs) were isolated from saphenous veins and mammary arteries by collagenase treatment (Worthington Biochemicals), and cultured in dishes coated with gelatin (Difco). Cells were maintained in medium 199 (1 4199; BioWhittaker) supplemented with 100 U/ml penicillin/streptomycin (BioWhittaker), 5% FCS (Gibco), 100 μg/ml heparin (Sigma) and 50 μg/ml ECGF (endothelial cell growth factor; Pel-Freez Biological). Human vascular smooth muscle (SMCs) cells were isolated from human saphenous veins and mammary arteries by explant outgrowth, and cultured in DMEM (BioWhittaker) supplemented with 1% L-glutamine (BioWhittaker), 1% penicillin/streptomycin, and 10% FCS. Both cell types were subculture following trypsinization (0.5% trypsin (Worthington Biochemicals)/0.2% EDTA (EM Science)) in P100-culture dishes (Becton Dickinson). Culture media and FCS contained less than 40 pg LPS/ml as determined by chromogenic Limulus amoebocyte-assay analysis (QLC1000; BioWhittaker).
Western blot analysis. Cells were harvested in ice-cold RIPA solubilization buffer, and total amounts of protein were determined using a bicinchoninic acid quantification assay (Pierce, Rockford, Ill.). Twenty μg of total protein/lane were separated by SDS/PAGE under reducing conditions and blotted to polyvinylidene difluoride membranes (Millipore Corp, Bedford, Mass.) using a semidry blotting apparatus (Bio-Rad, Hercules, Calif.). Blots were blocked overnight in 5% defatted dry milk/PBS/0.1% Tween, and then incubated for 1 hour at room temperature with primary antibody (1:40) (rabbit polyclonal anti-CD40 Santa Cruz, San Diego, Calif.), or mouse monoclonal anti-human P-actin (1:5000) (Phanningen) for control of loading. This was followed by a 1 hour incubation with secondary peroxidase-conjugated antibody (1:10′000), (Jackson Immunoresearch, West Grove, Pa.). All steps were performed at room temperature and in between incubation steps cells were rinsed with PBS/0.1% Tween. lmmunoreactivity was detected using the enhanced chemiluminescence detection method according to the manufacturer's instructions. (Amersharn, Ddbendorf, Switzerland), and subsequent exposure of the membranes to x-ray film. Analysis of quantification of detection was performed using AIDA software.
Flow cytometry. Cells were incubated with FITC-conjugated specific antibody (60 min, […]) and analyzed in a Becton Dickinson FACScan flow cytometer. At least 20.000 viable cells were analyzed per condition. Data were analyzed using […] software (Becton Dickinson).
Surface CD40 expression was analyzed by […] after 24 hrs.

CD40 mediated pathways = test: Cytokine release (MCP-1, IL-6, IL-8) from endothelial cells activated by CD40L, ELISA; type: cell-based, human; details: ECs; CD154 stimulation with statin; L-mevalonate added
Protocol: Cytokines assay. […] Experiments were performed in the presence of polymyxin B (1 μg/ml). Antibody binding was detected by adding substrate (R&D), and absorbance measured at 450 nm using a Dynatech plate reader. The amount of IL-6, IL-8 and MCP-I detected was calculated from a standard curve prepared with the recombinant protein. Samples were assayed in duplicates.
To investigate the functional consequences of inhibition of CD40 expression by statins on Endothelial Cells activation by CD40L, secreted cytokines were analyzed such as Interleukin-6 (IL-6), interleukin-8 (IL-8), macrophages chemoattractant protein-1 (MCP-1).

Molecule | relative potency as MHC class II repressor among the forms tested (MHC class II) | IFN-γ induced CD40 expression (CD40; IFN-γ 500 U/ml, 24 hrs) | concentration range over which the effect on IFN-γ induced CD40 was observed (CD40; IFN-γ 500 U/ml, 24 hrs, FIG. 7) [µM] | IFN-γ induced CD40 expression (CD40; IFN-γ 500 U/ml, 24 hrs, listed as atorvastatin) | effect on IFN-γ induced CD40 in the presence of L-mevalonate (CD40; with L-mevalonate) | CD40 expression, treatment with statin alone (CD40; without IFN-γ) | reversal of the statin effect by addition of L-mevalonate (CD40 mediated pathways)
CC(C)c1c(C(=O)Nc2ccccc2)c(-c2ccccc2)c(-c2ccc(F)cc2)n1CC[C@@H](O)C[C@@H](O)CC(=O)O [Atorvastatin] | most powerful MHC class II repressor | repressed this induction of CD40 in a dose-dependant manner; also recorded: decreases IFN-γ induced CD40 protein expression on human atheroma-associated cells in a dose-dependant manner | 0.08 to 0.5 | decreased | markedly reduced | had an effect on CD40 expression | –
CC[C@H](C)C(=O)O[C@H]1C[C@@H](C)C=C2C=C[C@H](C)[C@H](CC[C@@H]3C[C@@H](O)CC(=O)O3)[C@H]21 [Lovastatin] | – | decreased | – | – | – | – | –
L-mevalonate | – | – | – | – | – | – | significantly reverses the process

Reference: US20040013643A1, “Methods for treatment of multiple sclerosis with statins” (Novlmmune S.A., priority 2000, published 2004)
